Key:
[1] = target: T1, Cav3.2 T-type Ca2+ channels expressed in HEK cells (Homo sapiens, UniProt O95180); assay: Cav3.2 voltage-clamp electrophysiological assay; format: cell-based; conditions: Cav3.2 in HEK cells
T1 construct: expressed in transfected cells; host or cells: HEK cells
Excerpt: Prior to recording currents from Cav3.2 T-type Ca^2+ channels expressed in HEK cells, the culture media was replaced with extracellular solution (ECS) containing (in mM): 142 CsCl, 10 D-glucose, 2 CaCl2, 1 MgCl2, 10 HEPES, pH adjusted to 7.4 with CsOH. Borosilicate glass patch pipettes, pulled on a P-97 micropipette puller (Sutter Instruments, Novato, Calif.) with typical resistances of 2-4 MW, were backfilled with intracellular solution containing (in mM): 126.5 Cs-methanesulphonate, 2 MgCl2, 10 HEPES, 11 EGTA, 2 Na-ATP, pH adjusted to 7.3 CsOH. […] were recorded in the whole-cell configuration at room temperature (˜21° C.) using an Axopatch 200B (Molecular Devices, Sunnyvale, Calif.) patch-clamp amplifier. Recordings were low-pass filtered at 1 kHz (−3 dB 4-pole Bessel filter), digitized at 2 kHz with a Digidata 1322A interface (Molecular Devices), and acquired using pClamp 9.2 (Molecular Devices). No leak subtraction was used. Test compounds, prepared as 30 mM stock solutions in DMSO and diluted in extracellular buffer, were applied through a gravity driven multi-barrelled array of capillaries (24 gauge) connected to reservoirs controlled by solenoid valves. The effects of compounds on Cav3.2 slow and fast inactivation were evaluated using four different voltage protocols. The voltage dependence of fast and slow channel inactivation was examined using a two pulse protocol. Data were analyzed and fitted using OriginPro v.7.5 (OriginLab, Northampton, Mass.) software.

[2] = test system: SNL L5/L6 rats; assay: L5/L6 spinal nerve ligation (SNL) Chung pain model, tactile allodynia (von Frey); format: in vivo, rat
Excerpt: The Spinal Nerve Ligation is an animal model representing peripheral nerve injury generating a neuropathic pain syndrome. In this model experimental animals develop the clinical symptoms of tactile allodynia and hyperalgesia. L5/L6 Spinal nerve ligation (SNL) injury was induced using the procedure of Kim and Chung (Kim et al., Pain 50:355-363 (1992)) in male Sprague-Dawley rats (Harlan; Indianapolis, Ind.) weighing 200 to 250 grams.
Anaesthesia was induced with 2% isofluorane in O2 at 2 L/min and maintained with 0.5% isofluorane in O2. Rats were then shaved and aseptically prepared for surgeries. A 2 cm paraspinal incision was made at the level of L4-S2. L4/L5 was exposed by removing the transverse process above the nerves with a small rongeur. The L5 spinal nerve is the larger of the two visible nerves below the transverse process and lies closest to the spine. The L6 spinal nerve is located beneath the corner of the slope bone. A home-made glass Chung rod was used to hook L5 or L6 and a pre-made slip knot of 4.0 silk suture was placed on the tip of the rod just above the nerve and pulled underneath to allow for the tight ligation. The L5 and L6 spinal nerves were tightly ligated distal to the dorsal root ganglion. The incision was closed, and the animals were allowed to recover for 5 days.
Sham control rats underwent the same operation and handling as the experimental animals, but without SNL.
Prior to initiating drug delivery, baseline behavioural testing data is obtained. At selected times after infusion of the Test or Control Article behavioural data can then be collected again.
The assessment of tactile allodynia consisted of measuring the withdrawal threshold of the paw ipsilateral to the site of nerve injury in response to probing with a series of calibrated von Frey filaments (innocuous stimuli). Animals were acclimated to the suspended wire-mesh cages for 30 min before testing. Each von Frey filament was applied perpendicularly to the plantar surface of the ligated paw of rats for 5 sec. A positive response was indicated by a sharp withdrawal of the paw. For rats, the first testing filament is 4.31. Measurements were taken before and after administration of test articles. […] The protocol was repeated until three changes in behaviour were determined (“up and down” method) (Chaplan et al., J. Neurosci. Methods 53:55-63 (1994)). The 50% paw withdrawal threshold was determined as (10^[Xf+kδ])/10,000, where Xf=the value of the last von Frey filament employed, k=Dixon value for the positive/negative pattern, and δ=the logarithmic difference between stimuli. The cut-off values for rats were no less than 0.2 g and no higher than 15 g (5.18 filament); for mice no less than 0.03 g and no higher than 2.34 g (4.56 filament). A significant drop of the paw withdrawal threshold compared to the pre-treatment baseline is considered tactile allodynia.
Rat SNL tactile allodynia were tested for Compounds 1-4 and 9-12 at 60 minutes compared to baseline and post-SNL. […] FIG. 1 is a plot of the antiallodynic effects of compound 4 (i.p.) tested in SNL L5/L6 rats using von Frey at three different doses, namely 3, 10 and 30 mpk, compared to vehicle alone. […] Rat SNL tactile allodynia were tested at 1, 2 and 4 hours after drug treatment (Table 6).

[3] = test system: Lamina I/II spinal cord neurons; assay: Lamina assay: current-clamp recordings on lamina I/II spinal cord neurons; format: cell-based, rat; conditions: lamina I and II neurons
Excerpt: Male Wistar rats (P6 to P9 for voltage-clamp and P15 to P18 for current-clamp recordings) were anaesthetized through intraperitoneal injection of Inactin (Sigma). The spinal cord was then rapidly dissected out and placed in an ice-cold solution protective sucrose solution containing (in mM): 50 sucrose, 92 NaCl, 15 D-Glucose, 26 NaHCO3, 5 KCl, 1.25 NaH2PO4, 0.5 CaCl2, 7 MgSO4, 1 kynurenic acid, and bubbled with 5% CO2/95% O2. The meninges, dura, and dorsal and ventral roots were then removed from the lumbar region of the spinal cord under a dissecting microscope. The “cleaned” lumbar region of the spinal cord was glued to the vibratome stage and immediately immersed in ice cold, bubbled, sucrose solution. For current-clamp recordings, 300 to 350 μm parasagittal slices were cut to preserve the dendritic arbour of lamina I neurons, while 350 to 400 μm transverse slices were prepared for voltage-clamped Nav channel recordings. Slices were allowed to recover for 1 hour at 35° C. in Ringer solution containing (in mM): 125 NaCl, 20 D-Glucose, 26 NaHCO3, 3 KCl, 1.25 NaH2PO4, 2 CaCl2, 1 MgCl2, 1 kynurenic acid, 0.1 picrotoxin, bubbled with 5% CO2/95% O2. The slice recovery chamber was then returned to room temperature (20 to 22° C.) and all recordings were performed at this temperature. […]

[4] = voltage-dependence of half inactivation

T1 sequence (O95180 whole entry): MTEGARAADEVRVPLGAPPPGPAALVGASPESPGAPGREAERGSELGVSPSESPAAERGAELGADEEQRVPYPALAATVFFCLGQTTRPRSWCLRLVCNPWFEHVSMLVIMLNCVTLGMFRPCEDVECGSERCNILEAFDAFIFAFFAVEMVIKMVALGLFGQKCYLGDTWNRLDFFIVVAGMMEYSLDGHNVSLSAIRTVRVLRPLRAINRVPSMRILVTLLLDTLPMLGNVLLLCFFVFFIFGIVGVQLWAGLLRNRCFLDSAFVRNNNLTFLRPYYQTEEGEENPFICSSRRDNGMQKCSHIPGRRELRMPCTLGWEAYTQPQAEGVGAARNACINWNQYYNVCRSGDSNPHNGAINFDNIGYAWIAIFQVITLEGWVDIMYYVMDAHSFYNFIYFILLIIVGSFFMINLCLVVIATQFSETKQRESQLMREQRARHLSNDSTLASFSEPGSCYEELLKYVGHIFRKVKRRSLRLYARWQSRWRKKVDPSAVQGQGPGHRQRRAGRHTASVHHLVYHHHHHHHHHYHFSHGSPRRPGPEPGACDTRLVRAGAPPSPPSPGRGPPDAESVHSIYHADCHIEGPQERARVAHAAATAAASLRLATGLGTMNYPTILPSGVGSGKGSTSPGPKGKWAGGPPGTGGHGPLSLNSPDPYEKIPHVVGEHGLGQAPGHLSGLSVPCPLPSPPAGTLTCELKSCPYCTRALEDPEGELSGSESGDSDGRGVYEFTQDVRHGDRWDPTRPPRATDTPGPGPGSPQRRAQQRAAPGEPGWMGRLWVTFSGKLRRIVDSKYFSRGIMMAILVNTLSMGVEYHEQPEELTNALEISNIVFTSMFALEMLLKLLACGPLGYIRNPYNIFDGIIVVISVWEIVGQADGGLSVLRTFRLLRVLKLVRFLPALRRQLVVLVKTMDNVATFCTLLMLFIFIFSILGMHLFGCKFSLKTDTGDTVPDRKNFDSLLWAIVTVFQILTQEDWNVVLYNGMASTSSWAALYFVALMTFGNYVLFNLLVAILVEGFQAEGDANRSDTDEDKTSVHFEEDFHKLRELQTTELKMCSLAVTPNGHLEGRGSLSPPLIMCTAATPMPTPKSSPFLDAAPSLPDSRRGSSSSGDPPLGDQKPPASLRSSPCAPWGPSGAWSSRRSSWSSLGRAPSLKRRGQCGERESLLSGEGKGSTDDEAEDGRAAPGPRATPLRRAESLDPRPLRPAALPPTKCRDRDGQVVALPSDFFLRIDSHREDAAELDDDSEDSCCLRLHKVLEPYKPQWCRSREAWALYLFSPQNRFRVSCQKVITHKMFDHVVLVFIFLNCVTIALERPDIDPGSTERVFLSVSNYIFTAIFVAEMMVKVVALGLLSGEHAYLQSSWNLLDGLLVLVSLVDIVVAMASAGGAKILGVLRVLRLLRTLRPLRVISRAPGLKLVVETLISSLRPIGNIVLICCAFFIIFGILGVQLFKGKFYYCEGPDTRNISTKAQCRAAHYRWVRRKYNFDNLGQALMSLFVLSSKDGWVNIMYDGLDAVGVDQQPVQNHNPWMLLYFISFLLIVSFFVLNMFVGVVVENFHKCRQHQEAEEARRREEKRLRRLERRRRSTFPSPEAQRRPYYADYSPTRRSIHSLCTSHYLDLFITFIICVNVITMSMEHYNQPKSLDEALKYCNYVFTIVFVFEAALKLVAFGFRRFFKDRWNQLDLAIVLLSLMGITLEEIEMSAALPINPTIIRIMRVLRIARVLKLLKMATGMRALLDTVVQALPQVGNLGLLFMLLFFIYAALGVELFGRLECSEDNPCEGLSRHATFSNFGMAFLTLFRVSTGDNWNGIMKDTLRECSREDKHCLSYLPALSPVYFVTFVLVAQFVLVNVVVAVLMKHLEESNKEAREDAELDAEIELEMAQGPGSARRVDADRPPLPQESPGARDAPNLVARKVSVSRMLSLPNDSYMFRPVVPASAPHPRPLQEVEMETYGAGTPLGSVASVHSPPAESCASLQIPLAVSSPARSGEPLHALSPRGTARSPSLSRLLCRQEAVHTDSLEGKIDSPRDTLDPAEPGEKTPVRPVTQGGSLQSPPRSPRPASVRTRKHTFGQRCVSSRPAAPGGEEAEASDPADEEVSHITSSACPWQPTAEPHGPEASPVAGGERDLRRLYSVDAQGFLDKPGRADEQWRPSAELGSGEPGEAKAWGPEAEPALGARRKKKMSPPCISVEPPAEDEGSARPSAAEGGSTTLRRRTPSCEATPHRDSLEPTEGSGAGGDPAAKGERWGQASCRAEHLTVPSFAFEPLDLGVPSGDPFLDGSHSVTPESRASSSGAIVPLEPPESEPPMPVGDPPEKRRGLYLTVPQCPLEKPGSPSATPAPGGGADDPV

SMILES	τ recovery from fast inactivation (ms) [1]	τ recovery from slow inactivation (ms) [1]	Fraction of current recovered at 5.1 s interval [1]	Fraction current remaining at −40 mV ([1]; at −40 mV)	V1/2 fast inactivation (mV) [1, 4]	V1/2 slow inactivation (mV) [1, 4]	Rat SNL Tactile Allodynia (% Antiallodynia) ([2]; 1 hour after drug treatment)	Rat SNL Tactile Allodynia (% Antiallodynia) ([2]; 2 hours after drug treatment)	Rat SNL Tactile Allodynia (% Antiallodynia) ([2]; 4 hours after drug treatment)	% Spike Change (Mean; % change from control) [3]	τ recovery from slow inactivation [1]	Rat SNL tactile allodynia, anti-allodynia (statement) ([2]; compared to baseline and post-SNL)	Antiallodynic effects compared to vehicle (FIG. 1) ([2]; i.p., 3, 10 and 30 mpk, 60 minutes after drug administration, von Frey)
O=C1CN(C(=O)CC(c2ccc(Cl)cc2)c2ccc(Cl)cc2)CCN1 [Compound 3, 4-(3,3-bis(4-chlorophenyl)propanoyl)piperazin-2-one]	*512 ms	*903 ms	0.91	*0.40	−64 mV	−78 mV	51%	49%	30%	28.7%			
O=C1CN(C(=O)CC(c2ccccc2)c2ccccc2)CCN1 [Compound 4, 4-(3,3-diphenylpropanoyl)piperazin-2-one]			0.98				92%			−5.3%	495 ms	significant antiallodynia	statistically significant antiallodynic effects

Reference: patent US8629149B2, “Oxopiperazine derivatives for the treatment of pain and epilepsy” (Zalicus Pharmaceuticals Ltd., priority 2009, dated 2014)
